# From PMC10141580, “Cyclic Dichalcogenides Extend the Reach of Bioreductive Prodrugs to Harness Thiol/Disulfide Oxidoreductases: Applications to seco-Duocarmycins Targeting the Thioredoxin System” (ACS Central Science, 2023)
# Values joined by “and” are separate entries in the source; they are usually repeats but may differ in a detail not shown here. Equal values may be shown once. Read-outs that look alike come from different tables or passages of the source.
# Tested on: panel of 140 standard cancer cell lines
# Assay: ProliFiler-140 cancer cell line screen (CellTiterGlo, 72 h)
# Assay type: cell-based
# Procedure: Incubations were performed for 72 h before automated viability readout with CellTiterGlo (Figure 8).
# End of Figure S11 (part 5 of 5): ProliFiler-140 cancer cell line screening for cytotoxicity of the prodrugs.
# 8-data-point dose response curves from CellTiter-Glo® viability readout.
# ProliFiler-140 cell line panel part V
compound,measurement,setting,value
COc1cc2cc(C(=O)N3C[C@@H](CCl)c4c3cc(OC(=O)N(CCC(=O)N3CCN(C)CC3)C3CCCCC3)c3ccccc43)[nH]c2c(OC)c1OC [P-CC60-CBI-TMI],IC50,"MEC-1 (Blood), read-out: IC50 [M] (ProliFiler-140)",8.9e-08 M and 8.89e-08 M
same,IC50,"MKN-1 (Stomach), read-out: IC50 [M] (ProliFiler-140)",1.5e-06 M and 1.53e-06 M
same,IC50,"MKN-45 (Stomach), read-out: IC50 [M] (ProliFiler-140)",4.87e-07 M and 4.9e-07 M
same,IC50,"MOLM-13 (Blood), read-out: IC50 [M] (ProliFiler-140)",6.1e-08 M and 6.05e-08 M
same,IC50,"MOLT-4 (Blood), read-out: IC50 [M] (ProliFiler-140)",7.6e-08 M and 7.57e-08 M
same,IC50,"MV4-11 (Blood), read-out: IC50 [M] (ProliFiler-140)",1.2e-08 M and 1.18e-08 M
same,IC50,"Mia PaCA 2 (Pancreas), read-out: IC50 [M] (ProliFiler-140)",3.75e-07 M and 3.8e-07 M
same,IC50,"NALM-6 (Blood), read-out: IC50 [M] (ProliFiler-140)",5.58e-08 M and 5.6e-08 M
same,IC50,"NCI-H82 (Lung), read-out: IC50 [M] (ProliFiler-140)",7.5e-07 M
same,IC50,"NCI-H292 (Lung), read-out: IC50 [M] (ProliFiler-140)",2.6e-07 M and 2.59e-07 M
same,IC50,"NCI-H441 (Lung), read-out: IC50 [M] (ProliFiler-140)",2.94e-07 M and 2.9e-07 M
same,IC50,"NCI-H838 (Lung), read-out: IC50 [M] (ProliFiler-140)",7.5e-07 M and 7.54e-07 M
same,IC50,"NCI-H1048 (Lung), read-out: IC50 [M] (ProliFiler-140)",5.9e-08 M and 5.92e-08 M
same,IC50,"NCI-H1437 (Lung), read-out: IC50 [M] (ProliFiler-140)",3.01e-07 M and 3e-07 M
same,IC50,"NCI-H1563 (Lung), read-out: IC50 [M] (ProliFiler-140)",1.7e-06 M and 1.69e-06 M
same,IC50,"NCI-H1573 (Lung), read-out: IC50 [M] (ProliFiler-140)",1.1e-06 M and 1.07e-06 M
same,IC50,"NCI-H1581 (Lung), read-out: IC50 [M] (ProliFiler-140)",4.32e-07 M and 4.3e-07 M
same,IC50,"NCI-H1703 (Lung), read-out: IC50 [M] (ProliFiler-140)",8.1e-07 M and 8.15e-07 M
same,IC50,"NCI-H1838 (Lung), read-out: IC50 [M] (ProliFiler-140)",8.2e-07 M and 8.19e-07 M
same,IC50,"NCI-H2009 (Lung), read-out: IC50 [M] (ProliFiler-140)",4.22e-07 M and 4.2e-07 M
same,IC50,"NCI-H2110 (Lung), read-out: IC50 [M] (ProliFiler-140)",1.4e-07 M and 1.44e-07 M
same,IC50,"NCI-H2286 (Lung), read-out: IC50 [M] (ProliFiler-140)",1.2e-07 M and 1.25e-07 M
same,IC50,"NCI-N87 (Stomach), read-out: IC50 [M] (ProliFiler-140)",1.1e-06 M and 1.15e-06 M
same,IC50,"OCI-AML3 (Blood), read-out: IC50 [M] (ProliFiler-140)",1.3e-07 M and 1.33e-07 M
same,IC50,"OCI-AML5 (Blood), read-out: IC50 [M] (ProliFiler-140)",3.4e-08 M and 3.39e-08 M
same,IC50,"OCI-LY19 (Blood), read-out: IC50 [M] (ProliFiler-140)",1.53e-08 M and 1.5e-08 M
same,IC50,"OPM-2 (Blood), read-out: IC50 [M] (ProliFiler-140)",6.61e-07 M and 6.6e-07 M
same,IC50,"OV56 (Ovary), read-out: IC50 [M] (ProliFiler-140)",2.02e-07 M and 2e-07 M
same,IC50,"OVCAR-3 (Ovary), read-out: IC50 [M] (ProliFiler-140)",1e-06 M and 1.02e-06 M
same,IC50,"OVCAR-3, read-out: IC50",1e-06 M
same,IC50,"OVK18 (Ovary), read-out: IC50 [M] (ProliFiler-140)",2e-07 M
same,IC50,"P31/FUJ (Blood), read-out: IC50 [M] (ProliFiler-140)",1.9e-07 M and 1.88e-07 M
same,IC50,"PANC-1 (Pancreas), read-out: IC50 [M] (ProliFiler-140)",1.4e-06 M and 1.38e-06 M
same,IC50,"PC3 (Prostate), read-out: IC50 [M] (ProliFiler-140)",5.17e-07 M and 5.2e-07 M
same,IC50,"PC-9 (Lung), read-out: IC50 [M] (ProliFiler-140)",1.1e-07 M and 1.14e-07 M
same,IC50,"RERF-LC-Ad2 (Lung), read-out: IC50 [M] (ProliFiler-140)",7.8e-07 M and 7.84e-07 M
same,IC50,"RERF-LC-MS (Lung), read-out: IC50 [M] (ProliFiler-140)",4.59e-07 M and 4.6e-07 M
same,IC50,"RKO (Colon), read-out: IC50 [M] (ProliFiler-140)",2.98e-07 M and 3e-07 M
same,IC50,"RL95-2 (Endometrium), read-out: IC50 [M] (ProliFiler-140)",7.43e-07 M and 7.4e-07 M
same,IC50,"RPMI 8226 (Blood), read-out: IC50 [M] (ProliFiler-140)",3.38e-07 M and 3.4e-07 M
same,IC50,"RPMI 8226, read-out: IC50",3.4e-07 M
same,IC50,"SCH (Stomach), read-out: IC50 [M] (ProliFiler-140)",3.9e-07 M and 3.87e-07 M
same,IC50,"SCLC-21H (Lung), read-out: IC50 [M] (ProliFiler-140)",1.58e-07 M and 1.6e-07 M
same,IC50,"SJSA-1 (Bone), read-out: IC50 [M] (ProliFiler-140)",3.78e-07 M and 3.8e-07 M
same,IC50,"SK-BR-3 (Breast), read-out: IC50 [M] (ProliFiler-140)",3.7e-07 M
same,IC50,"SK-ES-1 (Bone), read-out: IC50 [M] (ProliFiler-140)",3.35e-08 M and 3.4e-08 M
same,IC50,"SK-LU-1 (Lung), read-out: IC50 [M] (ProliFiler-140)",1.6e-07 M and 1.62e-07 M
same,IC50,"SK-MEL-3 (Skin), read-out: IC50 [M] (ProliFiler-140)",1e-06 M and 1.03e-06 M
same,IC50,"SK-N-FI (Brain), read-out: IC50 [M] (ProliFiler-140)",6.81e-07 M and 6.8e-07 M
same,IC50,"SK-N-MC (Brain), read-out: IC50 [M] (ProliFiler-140)",1.3e-08 M and 1.33e-08 M
same,IC50,"SK-N-SH (Brain), read-out: IC50 [M] (ProliFiler-140)",7.5e-07 M and 7.45e-07 M
same,IC50,"SK-OV3 (Ovary), read-out: IC50 [M] (ProliFiler-140)",4.38e-07 M and 4.4e-07 M
same,IC50,"SK-OV3, read-out: IC50",4.4e-07 M
same,IC50,"SNU840 (Ovary), read-out: IC50 [M] (ProliFiler-140)",6.99e-08 M and 7e-08 M
same,IC50,"SNU-1 (Stomach), read-out: IC50 [M] (ProliFiler-140)",2.3e-07 M and 2.27e-07 M
same,IC50,"SNU-16 (Stomach), read-out: IC50 [M] (ProliFiler-140)",7.09e-07 M and 7.1e-07 M
same,IC50,"SNU-216 (Stomach), read-out: IC50 [M] (ProliFiler-140)",1.84e-06 M and 1.8e-06 M
same,IC50,"SU-DHL-5 (Blood), read-out: IC50 [M] (ProliFiler-140)",5e-08 M and 4.98e-08 M
same,IC50,"SW480 (Colon), read-out: IC50 [M] (ProliFiler-140)",3.31e-07 M and 3.3e-07 M
same,IC50,"SW620 (Colon), read-out: IC50 [M] (ProliFiler-140)",6.99e-07 M and 7e-07 M
same,IC50,"SW948 (Colon), read-out: IC50 [M] (ProliFiler-140)",6.79e-07 M and 6.8e-07 M
same,IC50,"SW-1783 (Brain), read-out: IC50 [M] (ProliFiler-140)",4.78e-07 M and 4.8e-07 M
same,IC50,"Saos-2 EC (Bone), read-out: IC50 [M] (ProliFiler-140)",2.34e-07 M and 2.3e-07 M
same,IC50,"SiHa (Ovary), read-out: IC50 [M] (ProliFiler-140)",6.13e-07 M and 6.1e-07 M
same,IC50,"T84 (Colon), read-out: IC50 [M] (ProliFiler-140)",9.09e-07 M and 9.1e-07 M
same,IC50,"T98G (Brain), read-out: IC50 [M] (ProliFiler-140)",6.6e-07 M
same,IC50,"T-47D (Breast), read-out: IC50 [M] (ProliFiler-140)",1e-06 M and 1.04e-06 M
same,IC50,"T-47D, read-out: IC50",1e-06 M
same,IC50,"U2OS (Bone), read-out: IC50 [M] (ProliFiler-140)",1.31e-07 M and 1.3e-07 M
same,IC50,"U87MG (Brain), read-out: IC50 [M] (ProliFiler-140)",1.2e-06 M and 1.22e-06 M
same,IC50,"U118MG (Brain), read-out: IC50 [M] (ProliFiler-140)",3.92e-07 M and 3.9e-07 M
same,IC50,"U251MG (Brain), read-out: IC50 [M] (ProliFiler-140)",2e-06 M
same,IC50,"U-266 (Blood), read-out: IC50 [M] (ProliFiler-140)",1.41e-07 M and 1.4e-07 M
same,IC50,"U-937 (Blood), read-out: IC50 [M] (ProliFiler-140)",7.39e-08 M and 7.4e-08 M
same,IC50,"ZR-75-1 (Breast), read-out: IC50 [M] (ProliFiler-140)",1.42e-06 M and 1.4e-06 M
same,IC50,read-out: IC50 [M] (ProliFiler-140),2.36e-07 M and 2.4e-07 M
